# In patent US20030186352A1, “Apicomplexan chorismate synthase sequences and an inhibitor of the shikimate pathway” (priority 1998, published 2003):
# Legend:
# [1] = system: W2 clone of Plasmodium falciparum; test: P. falciparum in vitro growth assay (Milhous et al.), W2 clone; format: cell-based; conditions: Plasmodium falciparum, W2
# [2] = system: D6 clone of Plasmodium falciparum; test: P. falciparum in vitro growth assay (Milhous et al.), D6 clone; format: cell-based; conditions: Plasmodium falciparum, D6 clone
# [3] = system: C. parvum; test: C. parvum infection of MDBKF5D2 cell monolayers, immunofluorescence assay at 48 hours; format: cell-based, Cryptosporidium parvum; conditions: for approximate 95% Cl count (mean parasite count per field): media alone ~1800
# Method: C. parvum oocysts at 50,000/well were incubated at 37° C. (8% CO2) on confluent MDBKF5D2 cell monolayers in 96 well microtiter plates with the following concentrations of each drug. […] The level of infection of each well was determined and analyzed by an immunofluorescence assay at 48 hours using an antibody to C. parvum sporozoites made in rabbits at a concentration of 0.1%. Fluorescein-conjugated goat anti-rabbit antibody was used at a concentration of 1%.
# C. parvum oocysts at 50,000/well were incubated with each drug (PRM=paromomycin which is the positive control, NPMG, gabaculine, SHAM, 8-hydroxyquinoline) at 37° C. (8% carbon dioxide) on confluent MDBKF5D2 cell monolayers in 96 well microtiter plates. The level of infection of each well was determined and analyzed by an immunofluorescence assay at 48 hours using as an antibody C. parvum sporozoite rabbit anti-serum (0.1%), and using fluorescein-conjugated goat anti-rabbit antibody (1%). Data are expressed as mean parasite count/field when 16 fields counted at 10× magnification “s.d. of the mean” (FIG. 6).
# [4] = system: P. falciparum; test: P. falciparum in vitro growth assay, clone not stated; format: cell-based, Plasmodium falciparum
# Method: This assay is performed in folate deficient RPMI 1640 over a 66 hour incubation in plasma as described by Milhous et al. (1985). Both the W2 clone DHFR resistant phenotype and the D6 clone are used (Odula et al., 1988) (Table 3).
# [5] = system: T. gondii tachyzoites (RH strain); test: T. gondii growth inhibition in HFF monolayers, tritiated uracil uptake; format: cell-based, Toxoplasma gondii
# Method: The improvements are based on microscopic visual imspection of infected and inhibitor treated cultures, and on quantitation of nucleic acid synthesis of the parasite by measure intake of ^3H uracil onto the parasite's nucleic acid. Uracil is not utilized by mammalian cells. […] Only the RH strain tachyzoites, cultured for up to 72 hours, had been used in previously reported assays. The use of Me49, Ptg, and R5 mutant are unique aspects of the methods used in these assays in this invention.
# (§1) In these assays toxicity of a candidate inhibitor was assessed by its ability to prevent growth of human foreskin fibroblasts (HFF) after 4 days and after 8 days as measured by tritiated thymidine uptake and microscopic evaluation. Confluent monolayers of HFF were infected with tachyzoites and bradyzoites. Inhibitor was added one hour later. Non-toxic doses were used in parasite growth inhibition assays. Parasite growth was measured by ability to incorporate tritiated uracil during the last 18 hours of culture.
# (§2) First the toxicity of gabaculine was assessed by its ability to prevent growth of human foreskin fibroblasts (HFF) as measured by ^3H-thymidine uptake and microscopic evaluation. Non-toxic doses were used in parasite growth inhibition assays. in vitro parasite growth inhibition assays included confluent monolayers of HFF infected with tachyzoites (RH) or mutant Me49 (R5). Gabaculine was added 1 hour later. Parasite growth was measured by the ability to incorporate 3H-uracil during the last 18 hours of culture. In addition, parasite growth was evaluated microscopically in Giemsa stained slides.
# Confluent monolayers of HFF cells, grown in 96-well plates are infected with T. gondii tachyzoites of the RH strain and serial dilutions of anti-microbial compound are applied 1 hour later. T. gondii growth is assessed in these cultures by their ability to incorporate tritiated uracil (2.5 μCi/well) added during the last 18 hours of culture. After harvesting cells with an automatic cell harvester, uracil incorporation is measured by liquid scintillation.
# [6] = system: EPSP synthase; test: T. gondii EPSP synthase enzyme assay (HPLC detection of EPSP); format: biochemical; conditions: 1 mM
# Method: Assays for 4-aminobenzoate and 4-amino-4-deoxychorismate are performed as described previously.” Enzyme Assays: The 5-enolpyruvylshikimate-3-phosphate (EPSP) synthase assay entailed monitoring the generation of EPSP using HPLC. Reaction components were separated using a Hypersil H3APS2 HPLC column (Hichrom Limited, Reading, UK) and a NaH2PO4 elution gradient (50-400 mM). UV spectra (200-300 nm) of the colume eluate were collected to identify eluants. […] The peaks at 215 nm were integrated; the EPSP produced was quantified using a standard curve of authentic EPSP. Parasite extracts were produced at 4° C. by suspension of pure tachyzoites in extraction buffer (50 mM Tris.HCl, pH 7.5, containing complete TM protease inhibitor cocktail [Boehringer Mannheim, 1 tablet per 50 ml buffer]), sonication 3 times for 3 seconds at 30 second intervals, and centrifugation at 12000 g for 15 min. The resulting supernatant was diluted 6-fold with extraction buffer and loaded onto a ResourceQ column (1 ml, Pharmacia) equilibrated with extraction buffer. The bound protein was eluted in a single step using extraction buffer containing 500 mM Kcl. The eluted material was used for enzyme assay. The assay mix contained 1 mM phosphoenolpyruvate, 1 mM SP and 50 mM HEPES, pH 7.5. […] Protein concentrations of lysates were determined using the Lowry method. […]
# [7] = system: mutant R5 strain of T. gondii; test: Growth of mutant R5 strain of T. gondii in HFF, uracil uptake over 8 days; format: cell-based, Toxoplasma gondii; conditions: 20 mM gabaculine or P/S, 8 days in culture
# Method: Improvements were developed in the assays reported by Mack et al. (1984) and Holfels et al. (1994) to measure T. gondii replication in tissue culture. The improvements are based on microscopic visual imspection of infected and inhibitor treated cultures, and on quantitation of nucleic acid synthesis of the parasite by measure intake of ^3H uracil onto the parasite's nucleic acid. Uracil is not utilized by mammalian cells. […]
# First the toxicity of gabaculine was assessed by its ability to prevent growth of human foreskin fibroblasts (HFF) as measured by ^3H-thymidine uptake and microscopic evaluation. […] Parasite growth was measured by the ability to incorporate 3H-uracil during the last 18 hours of culture. In addition, parasite growth was evaluated microscopically in Giemsa stained slides.
# This mutant strain is atovaquone resistant and posseses certain characterisitics of the tachyzoite stage and certain characteristics of the bradyzoite stage. T. gondii growth is measure by their ability to incorporate tritiated uracil and is expressed as counts/minute (CPM) on the Y-axis. […]
# [8] = system: human foreskin fibroblasts (HFF); test: Toxicity to human foreskin fibroblasts, tritiated thymidine uptake and microscopy; format: cell-based; conditions: similar concentrations (20 mM)
# Method: as §1, §2
# Inhibitor compounds are tested over a range of concentrations for toxicity against mammalian cells by assessing their ability to prevent cell growth as measured by tritiated thymidine uptake and inspection of the monolayer using microscopic evaluation. […]
smiles,measurement,setting,value
"O=C(O)CNCP(=O)(O)O [NPMG, N-(phosphonomethyl) glycine]",IC50,[1],1.72 µg/mL
same,IC90,[1],3.4 µg/mL
same,IC50,[2]; read-out: IC 50,0.823 µg/mL
same,IC90,[2]; read-out: IC 90,2.51 µg/mL
same,product rescue by PABA of NPMG effect on C. parvum,[3],not abrogated by PABA
same,approximate 95% Cl count (mean parasite count per field),[3]; NPMG 0.45 μg/ml,~1200 count/field
same,approximate 95% Cl count (mean parasite count per field),[3]; NPMG 4.5 μg/ml,~900 count/field
same,approximate 95% Cl count (mean parasite count per field),[3]; NPMG 0.045,~1200 count/field
same,product rescue of glyphosate inhibition of in vitro growth of asexual erythrocytic forms,[4]; PABA and folate,PABA and folate antagonism of growth inhibition
same,restriction of CPM (tritiated uracil incorporation),"[5]; NPMG 3.12 mM, 4 day assay, medium around 72,000",around 60%
same,counts (tritiated uracil incorporation),"[5]; NPMG 4.5 mM, 4 days, medium around 72,000, no RH around 2,000 CPM","about 12,000 CPM"
same,product rescue by PABA of NPMG inhibition of nucleic acid synthesis,[5]; PABA at increasing concentrations added to cultures,PABA abrogates the inhibitory effects
same,inhibition at 4500 µM,"[5]; Toxoplasma gondii, 96 h, NPMG 4.5 mM, 4 day assay, read-out: inhibition of parasite growth",~80%
same,inhibition of T. gondii EPSP synthase enzyme activity,[6],inhibition of EPSP synthase enzyme activity
"NC1C=CC=C(C(=O)O)C1 (stereo not drawn) [gabaculine, 3-amino-2,3-dihydrobenzoic acid]",period over which parasite growth was restricted,[7],"over the first 6 days of culture, after which a marked increase in parasite growth was detected"
same,approximate 95% Cl count (mean parasite count per field),[3]; gabaculine 0.2 μg/ml,~1300 count/field
same,approximate 95% Cl count (mean parasite count per field),[3]; gabaculine 2 μg/ml,~600 count/field
same,approximate 95% Cl count (mean parasite count per field),[3]; gabaculine 20 μg/ml,~200 count/field
same,IC50,[4]; Plasmodium falciparum,≥ 45 µg/mL
same,parasite growth over the 8 day time course,"[5]; RH, 20 mM gabaculine or P/S, uracil CPM",restricted
same,inhibition at 5000 µM,"[5]; Toxoplasma gondii, 96 h, gabaculine 5 mM, 4 days, medium about 36,000 CPM",~60%
same,restriction of CPM (tritiated uracil incorporation),"[5]; gabaculine 5 mM, 4 day assay, medium around 45,000 CPM",around 50%
same,counts (tritiated uracil incorporation),"[5]; gabaculine 20 mM, 4 days, medium around 45,000, no RH around 2,000 CPM","about 5,000 CPM"
same,toxicity to the foreskin fibroblasts,[8],no toxicity
